“And” between values parts separate entries of the source, which are not always exact repeats. Identical values can stand only once. Like-named read-outs stand apart in the source and are kept apart here.
Columns and labels:
in vivo = details: daily po bolus (gastric gavage) for 6 days
Experimental: No further dose escalations were used because of the increased risk of pulmonary aspiration with larger drug volumes (≥2000 mg/kg/d).

[1] = tested on: HT-29, HCT 116, U251 and U87 xenografts; test: Tumor regrowth assay of response to RT; assay type: in vivo, athymic mice
[2] = Plasma PK of once daily po IPdR x 28 days; assay type: in vivo, Fischer-344 rats
Excerpt: Cancer research. 1994; 54(10):2695-700. […] Plasma samples are processed by solvent deproteinization.
This study was requested by the FDA as part of the pre-clinical testing of po IPdR prior to IND submission. […] Thus, the PK profile for po IPdR appears quite similar in mice and rats.

[3] = design: species or system ferret; details: in vivo
high-grade gliomas = test: Predicted clinical use of IPdR + RT (+TMZ); assay type: in vivo, human
Excerpt: Dysregulation of other DNA repair pathways, including both MMR and BER, are reported to contribute to the aggressive biology and poor prognosis of high-grade gliomas. In a recent comprehensive analysis of the messenger ribonucleic acid (mRNA) expression levels in 157 DNA repair genes in two large, publically available, gene expression data sets from 699 GBM tumors, the expression levels of a key BER glycolylase (APE1) and a key MMR protein (PMS2) were reported to be independent prognostic biomarkers of survival following treatment with RT alone or TMZ alone. Based on this novel DNA repair prognostic index for GBM and other high-grade gliomas, future clinical studies of the use of RT+IPdR would stratify for specific molecular subsets of high-grade gliomas with intact MGMT (i.e. unmethylated promoter) and deficient MMR. […] In both clinical scenarios, the enhanced IPdR-mediated radiosensitization would be predicted to improve the duration of survival by 50%, as reflected in the early trials of ci IUdR+RT (Table 1).
The patient will initially undergo maximal surgical resection, with a goal of <5% residual disease (the infiltrative nature of high-grade gliomas dictates this goal). […] The patient will continue TMZ and IPdR throughout the course of RT.

[4] = tested on: locally advanced rectal cancer; test: Predicted clinical use of po IPdR + RT + capecitabine; assay type: in vivo, human; details: po IPdR added to RT+capecitabine
Excerpt: The biochemical and cellular interactions of RT+FP are felt to result from inhibition of the enzyme, thymidylate synthetase (TS) by the FP monophosphate metabolite, FdUMP, leading to decreased (or unbalanced) nucleotide pools necessary for DNA synthesis and decreased DNA repair following RT damage. […] The clinical and PK data from this ongoing clinical trial will be used in the design of a future Phase II clinical trial of IPdR+RT+twice daily po capecitabine as pre-operative therapy in patients with locally advanced rectal cancer.
The patient will continue to take oral IPdR in addition to capecitabine therapy throughout the course of RT, and will discontinue IPdR and capecitabine following completion of RT.

[5] = tested on: locally advanced pancreas cancer; test: Predicted clinical use of IPdR + gemcitabine + RT; assay type: in vivo, human; details: from 40%
Excerpt: The patient will continue to take oral IPdR in addition to receiving gemcitabine therapy throughout the course of RT, and will discontinue IPdR following completion of RT.

chordoma = test: Predicted clinical use of IPdR + proton therapy; assay type: in vivo, human; details: IPdR added to PT
Excerpt: The patient will continue to take oral IPdR throughout the course of PT, and will discontinue IPdR following completion of PT.
PT as a modality of RT is gaining popularity as it allows delivery of higher doses of IR with equivalent or less toxicity (i.e. the TI of PT is higher than that of conventional RT). The use of PT, however, is limited by availability (limited number of PT centers), feasibility (logistics involved in the administration of PT formidable), and the cost (cost of PT is, on average, 3-5 times the cost of conventional RT).

[6] = in vivo
Excerpt: It has been previously reported that kinetically distinct forms of aldehyde oxidase exist in male and female rodent liver, and that these distinct forms occur as a result of differences in redox state and not in cDNA sequencing. […] A high degree of homology exists between mouse and human aldehyde oxidase.

[7] = tested on: cellular DNA of HCT-116, HT-29, U251 xenografts, bone marrow, intestine, liver
Experimental: After fixing the single-cell suspension with 70% ethanol in normal saline, the DNA is partially denatured with 2N HCl and subsequently reacted with a mouse anti-IUdR monoclonal antibody (Becton-Dickinson) followed by incubation with a fluorescein isothiocyanate-labeled goat anti-mouse secondary antibody. Finally, the nuclei are incubated with propidium iodide (PI) to label the DNA. Flow cytometric analysis is performed using two color analysis with emissions of fluorescein isothiocyanate detected with 530 nm short pass filters and PI detected with 630 nm long pass filters. In various embodiments, a minimum of 10,000 events is analyzed per sample, and the percentage of labeled cells is calculated.
Subsequently, single cells are disrupted and the DNA is enzymatically digested into free nucleosides. DNA extraction and digestion are performed by incubation with 10% trichloroacetic acid, followed by RNA digestion in 0.25M NaOH and enzymatic digestion with DNA-ase, alkaline phosphate and phosphodiesterase in MgCl and potassium phosphate buffer. A Waters 600E solvent delivery system on a 3.9×300 mm μ Bondapak reverse-phase column (Waters Corp, Milford, Mass.) is used. The mobile phase consists of 100 mm of sodium acetate buffer (pH 5.45) plus 7% (v/v) acetonitrile. Peak identification and quantitation of IUdR and thymidine (TdR) are performed against authentic nucleoside standards. The % IUdR-DNA replacement (or % TdR replacement) is calculated according to:

[8] = tested on: herpes simplex virus-infected HeLa cells; details: cited from earlier work
IPdR aldehyde oxidase = details: intestine, bone marrow, lung and kidney; cited from earlier work
[9] = cited from earlier work
[10] = Plasma pharmacokinetics of po IPdR in athymic mice
Excerpt: These nucleoside analogs are extracted from the plasma by the addition of 5-chloro-2′-deoxyuridine (internal standard) and acetonitrile. The samples are redissolved in deionized water for HPLC analysis using a Spectra-Physics P2000 pump and UV2000 detection (Spectra-Physics Analytical, Fremont, Calif.) on a 3.9×300 mm μ Bondapak C18 reverse phase column (Waters Associates, Milford, Mass.). […] Plasma samples are processed by solvent deproteinization. […] All solvents should be high-pressure liquid chromatography (HPLC) grade.

human cancer cell models = test: IUdR+MX in experimental human cancer cell models; assay type: cell-based
Excerpt: BER processing typically leads to chemotherapy drug and IR resistance. Consequently, the recognition and detection of BER-deficient cancers and/or the development of chemical inhibitors of specific BER enzymes can reverse alkylating and anti-metabolite drug resistance, as well as IR resistance. Based in part on the pre-clinical results from Dr. Kinsella's lab, methoxyamine (MX), a chemical inhibitor of BER, is currently undergoing clinical testing as TRC-102 in combination with chemotherapy drugs including temozolomide. MX is a small organic amine derivative of alkoxyamine that blocks the short patch BER pathway by covalently binding the AP site formed by a specific glycosylase, rendering it refractory to the catalytic activity of AP endonuclease 1. A MX-bound AP site is repaired much more slowly (>300×) than a normal AP site, and enhances cell death.

AP site = details: cited from earlier work
[11] = human colorectal and glioblastoma xenografts
[12] = IPdR+TMZ+RT, MGMT promoter methylated GBM

SMILES: O=c1ncc(I)cn1[C@H]1C[C@H](O)[C@@H](CO)O1 [IPdR]
- tolerated dose (in vivo): up to 1 g/kg/d
- enhancement of response to RT with po IPdR [1, 11]: IUdR. 1.3-1.5 fold
- calculated SER for po IPdR ([1]; mouse, in vivo, po): 1.3-1.5
- Cmax values for IPdR with increasing dose ([2]; 0.2 or 1.0 gm/kg/day): less than dose proportional
- IUdR AUC values vs dose ([2]; after po IPdR): proportional with increasing dose
- time of peak IUdR concentrations ([2]; after po IPdR dosing): ≤ 15 min
- mean half-life for IUdR ([2]; females, after po IPdR): 8 h
- mean elimination half-life for IPdR ([2]; highest dose): ~5 h
- mean half-life for IUdR ([2]; males, after po IPdR): 6 h
- absorption of po IPdR ([2]; rat, in vivo, po): not dependent on sex, dose, or single (Day 1) versus multiple daily dosings (Day 28)
- time of maximal concentrations of IPdR ([2]; single doses of 1.0 gm/kg/day): 90 min
- AUC values for IPdR after 28 days ([2]; vs Day 1): less than those observed after Day 1
- blood cell counts, liver function tests, kidney function tests, urinalysis [3]: No significant abnormalities
- gross findings at complete necropsy [3]: no anatomic lesions
- hematologic, biochemical, or histopathologic changes [3]: no significant hematologic,
- histology of CNS tissues [3]: No histological changes
- kidney and uterus weights [3]: decreased
- liver weights [3]: increased
- microscopic changes in liver [3]: minimal to moderate cytoplasmic vacuolation of hepatocytes
- weight loss at highest dose [3]: species. Noted mild weight
- predicted prolongation of survival (high-grade gliomas; [12]): up to 70%
- predicted survival (high-grade gliomas; [12]): 24 months
- predicted improvement of duration of survival (high-grade gliomas; RT+IPdR or RT+IPdR+TMZ): 50%
- further improvement in DFS [4]: 10-15%
- postulated pCR rate ([4]; from 10-15%): 30-35%
- expected percentage of patients achieving R0-resection [5]: > 60%
- predicted increase of the TI of the IR (chordoma): up to 1.5 ×
- clearance from plasma [6]: rapidly cleared from plasma in a bi-exponential fashion
- LD50 (IPdR, one dose/day×14-28 days): never reached
- TI of IPdR in animals (LD50/ED50): ∞
- deaths (very high doses, one dose/day×14-28 days): no deaths were seen
- radiosensitization compared to continuous infusion IUdR ([7]; % IUdR-DNA incorporation as surrogate): more effective radiosensitizer
- increase in % IUdR-DNA cellular incorporation in tumor vs MTD of po IUdR ([7]; IPdR 1 g/kg/d for 6 days, HCT-116): 2-3 fold
- IUdR-DNA incorporation in tumors, po IPdR vs ci IUdR [7, 11]: Increased IUdR-DNA
- increase in % IUdR-DNA tumor cell incorporation, po IPdR compared to ci IUdR ([7]; human tumor xenografts, MTD schedules of IUdR): 2-3 fold and 2 fold
- IUdR-DNA incorporation in normal tissues, po IPdR vs ci IUdR ([7]; mouse, in vivo, po): decreased in normal
- decrease in % IUdR-DNA incorporation in bone marrow and intestine, po IPdR compared to ci IUdR ([7]; mouse, in vivo, po): 2 fold and 2-3 fold
- less % IUdR-DNA incorporation in bone marrow and intestine, po IPdR vs po IUdR ([7]; mouse, in vivo, po): ≥ 2 fold
- % IUdR-DNA incorporation, liver tumor metastases vs sc tumor ([7]; po IPdR, HCT-116): no differential effect
- normal tissue systemic toxicities compared to continuous infusion IUdR ([7]; weight loss, myelosuppression): less normal tissue systemic toxicities
- toxicity to uninfected cells or mice [8]: without toxicity
- antiviral activity ([8]; in vitro and in vivo following po administration): significant activity
- activity of IPdR aldehyde oxidase in other normal tissues vs liver (IPdR aldehyde oxidase): 10 fold less
- plasma concentrations of IUdR vs oral dose of IPdR ([9]; 150 mg to 2400 mg): generally increased
- peak IUdR plasma levels ([9]; IPdR 2400 mg po, 6 patients): 4.0 ± 1.02 µmol/L
- IUdR half-life ([9]; IPdR 2400 mg po): 1.5 h
- time IUdR plasma levels remained above 1 umol/L ([9]; IPdR 2400 mg po): 3 to 4 h
- time to peak IUdR plasma levels ([9]; IPdR 2400 mg po): 1.67 ± 1.21 h
- toxicities ([9]; po IPdR 150 mg-2400 mg): No toxicities.
- IUdR levels decreasing over 8 hours to ([9]; po IPdR dose of 2400 mg): 1 µM
- duration of peak plasma levels of IUdR ([9]; po IPdR dose of 2400 mg): 4 h
- peak plasma levels of IUdR ([9]; po IPdR dose of 2400 mg): > 4 µM
- transient plasma levels of IUdR ([9]; po IPdR): up to 4 μMol/L
- adverse events (NCI Common Toxicity Criteria version 4.0) ([9]; single po dose 150-2400 mg, 10 patients): no drug-related adverse events
- peak plasma levels of IUdR ([10]; bolus 250 mg/kg IPdR po): up to 45 μM
- time to peak plasma levels of IUdR ([10]; bolus 250 mg/kg IPdR po): ≤ 15 min
- plasma levels of IPdR at 45 and 90 min ([10]; po 1500 mg/kg): remain elevated
- time to peak plasma level of IPdR ([10]; po IPdR bolus): 10 to 20 min
- time to peak plasma level of IUdR ([10]; po IPdR bolus): 10 to 20 min
- time to peak plasma level of metabolite IP ([10]; po bolus of IPdR): 45 to 90 min
- time to peak plasma level of metabolite IU ([10]; po bolus of IPdR): 45 to 90 min

SMILES: CON [MX, methoxyamine]
- effect of IUdR+MX on % IUdR-DNA incorporation and radiosensitization (human cancer cell models): enhances
- slower repair of MX-bound AP site than normal AP site (AP site): > 300 ×

From US11058702B2 (EMEK, Inc., priority 2014, dated 2021)
